Measurements as given in ChEMBL document CHEMBL1201862, “PubChem BioAssay data set” (2004).
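48-hour exposure; five concentrations; linearly interpolated endpoints. GI50 marks 50% less growth.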 Calls of active or inactive are those of the source. Cut-off read from the data, not from the text of the source: active = GI50 up to about 1.1 µM and inactive = higher.

How the values were obtained:
Assay in all cases: NCI-60 cell line screen, 48 h
OVCAR-4 = tested on: OVCAR-4
PC-3 = tested on: PC-3
K562 = tested on: K562
UO-31 = tested on: UO-31
MDA-N = tested on: MDA-N
UACC-257 = tested on: UACC-257
KM12 = tested on: KM12
SW-620 = tested on: SW-620
ACHN = tested on: ACHN
UACC-62 = tested on: UACC-62
HOP-92 = tested on: HOP-92
OVCAR-8 = tested on: OVCAR-8
NCI-H23 = tested on: NCI-H23
SF-539 = tested on: SF-539
NCI/ADR-RES = tested on: NCI/ADR-RES
SK-MEL-5 = tested on: SK-MEL-5
SK-MEL-2 = tested on: SK-MEL-2
SNB-75 = tested on: SNB-75
NCI-H522 = tested on: NCI-H522
SN12C = tested on: SN12C

Measured: GI50

O=c1[nH]nc(-c2ccccc2)n1/N=C/c1ccc([N+](=O)[O-])o1
inactive: OVCAR-4 6.65 µM | PC-3 6.35 µM | K562 3.64 µM | UO-31 4.32 µM | MDA-N 3.25 µM | UACC-257 4.92 µM | KM12 6.65 µM | SW-620 2.49 µM | ACHN 2.42 µM | UACC-62 5.21 µM | HOP-92 6.71 µM | OVCAR-8 3.22 µM | NCI-H23 5.9 µM | SF-539 4.65 µM | NCI/ADR-RES 5.85 µM | SK-MEL-5 14.8 µM | SK-MEL-2 5.21 µM | SNB-75 16 µM | NCI-H522 1.32 µM | SN12C 4.37 µM

CC(=O)Nc1ccc2cc3[nH]c4cc(NC(C)=O)ccc4c3nc2c1
inactive: OVCAR-4 > 100 µM | PC-3 > 100 µM | K562 77.1 µM | UO-31 > 100 µM | MDA-N > 100 µM | UACC-257 > 100 µM | KM12 21.7 µM | SW-620 > 100 µM | ACHN > 100 µM | UACC-62 > 100 µM | HOP-92 > 100 µM | OVCAR-8 > 100 µM | NCI-H23 > 100 µM | SF-539 > 100 µM | NCI/ADR-RES > 100 µM | SK-MEL-5 > 100 µM | SK-MEL-2 > 100 µM | SNB-75 > 100 µM | NCI-H522 > 100 µM | SN12C > 100 µM
